Data as given in the OPERA property sets (Mansouri et al. 2018).

logP | Structure (SMILES)
1.88 | CCCCC(C(N)=O)n1nnc2ccccc21 (centres undefined)
2.82 | CCCC(C(=O)OCC)n1nnc2ccccc21 (centres undefined)
2.61 | c1ccc2c(c1)nnn2C1CCCC1
1.35 | CC(CCC(N)=O)n1nc2ccccc2n1 (centres undefined)
0.15 | CC(CCC(=O)O)n1nnc2ccccc21 (centres undefined)
1.75 | CCCC(C(N)=O)n1nc2ccccc2n1 (centres undefined)
3.63 | c1ccc2nn(C3CCCCC3)nc2c1
3.04 | c1ccc2nn(C3CCCC3)nc2c1
2.88 | CCOC(=O)C(CC)n1nc2ccccc2n1 (centres undefined)
1.25 | CCC(C(N)=O)n1nc2ccccc2n1 (centres undefined)
-0.2 | CC(CC(=O)O)n1nnc2ccccc21 (centres undefined)
2.7 | CCOC(=O)CC(C)n1nc2ccccc2n1 (centres undefined)

The next lines start with the compound.

Structure (SMILES) | logP
CC(C)(C(N)=O)n1nc2ccccc2n1 | 1.16
CC(C)(C(N)=O)n1nnc2ccccc21 | 0.76
CCCCC(C(N)=O)n1nc2ccccc2n1 (centres undefined) | 2.28
CCOC(=O)CC(C)n1nnc2ccccc21 (centres undefined) | 2.27
c1ccc2c(c1)nnn2C1CCCCC1 | 3.11
CC(C)(C(=O)O)n1nnc2ccccc21 | -0.2
CCCCC(C(=O)OCC)n1nc2ccccc2n1 (centres undefined) | 3.88
CCCC(C(N)=O)n1nnc2ccccc21 (centres undefined) | 1.38
CC(C(N)=O)n1nc2ccccc2n1 (centres undefined) | 0.86
CCOC(=O)C(C)n1nnc2ccccc21 (centres undefined) | 1.87
CC(CCC(=O)O)n1nc2ccccc2n1 (centres undefined) | 0.69
CC(C)(C(=O)O)n1nc2ccccc2n1 | 0.64
CCC(C(N)=O)n1nnc2ccccc21 (centres undefined) | 0.88
CCOC(=O)C(CC)n1nnc2ccccc21 (centres undefined) | 2.34
CCOC(=O)C(C)n1nc2ccccc2n1 (centres undefined) | 2.38
CCCC(C(=O)OCC)n1nc2ccccc2n1 (centres undefined) | 3.38
CCCCC(C(=O)OCC)n1nnc2ccccc21 (centres undefined) | 3.32
